In patent publication US20050234065A1, “Dipeptidyl peptidase-IV inhibitors” (Pfizer Inc, priority 2004, published 2005):
Several values for one entry are separate records, joined by “and”; a condition that tells them apart may be missing. Identical values can stand only once. Counter-ions that a name gives are not always drawn.

Experiments:
[1] = Madin-Darby Canine Kidney Cells (MDCK) permeability assay; assay type: in vitro ADME; conditions: dog, apparent permeability, apical to basolateral
Method: Drug permeability through MDCK cell monolayers is known to be a useful tool as a model for cellular barrier for assessing intestinal epithelial drug transport, and thus to estimate intestinal permeability for orally administered compounds.
In this assay, monolayer cultures, suitable for investigation of compound permeability, were grown on Falcon/BD 96-well membrane inserts. The monolayers were maintained at 37° C. in a 5% CO2 atmosphere at 95% relative humidity until confluent. Apparent permeabilities of test compounds were determined in duplicate at a single concentration of 2 μM in the apical to basolateral direction. The transport investigations were initiated by the addition of the compound (2 μM of a solution containing 0.4% DMSO) to the apical compartment and the plates were maintained under culture conditions during the course of the experiment. The basolateral compartments following 2.5 hours of exposure and the final apical compartments were collected and analyzed for compound content by LC-MS/MS. The apparent permeability of each compound was then calculated.
Compounds of the present invention, such as those of Examples 18 and 27 were used in this assay. By comparison, comparison DPP-IV inhibitor compounds, which are generically disclosed in International Application WO02/076450, were also synthesized, and then used in this assay.

DPP-IV = target: T1, DPP-IV (Homo sapiens, UniProt P27487); test: In vitro assay for dipeptidyl peptidase inhibition; assay type: biochemical; conditions: hydrochloride salts; Gly-Pro-4-methoxy B naphthylamide substrate; overnight at 37° C.; read-out: IC50 (concentration of test compound required for 50% inhibition)
T1 construct: purchased Enzyme Systems Products SPE-01
Method: 150 μL of an enzyme-substrate solution was pipetted into microtiter wells of a polystyrene 96-well plate, and maintained at 4° C. The enzyme-substrate solution comprised 50 μM Gly-Pro-4-methoxy B naphthylamide HCl in 50 mM Tris assay buffer pH 7.3 containing 0.1M sodium chloride, 0.1% (v/v) Triton and 50 μU/mL DPP-IV (Enzyme Systems Products Cat#SPE-01, DPP-IV 5 mU/mL stock). 5 μL/well of compounds of Formula (I) were added, bringing the final compound of Formula (I) concentrations to 3 μM-10 nM per well.
Controls. Enzyme was omitted from four (4) wells, as a reagent blank. 5 μL of 3 mM Diprotin A was added to four wells as a positive quality control, providing a final Diprotin A concentration of 100 μM. To measure total enzyme activity (i.e. a negative control), without the influence of any compounds of Formula (I), 5 μL of distilled water was added to four wells.
The entire assay was incubated overnight (about 14-18 hours) at 37° C.

KK/H1J mice = test: In vivo assay for glucose lowering (oral glucose tolerance test); conditions: fasted KK/H1J mice
Excerpt: The glucose lowering effects of DPP-IV inhibitors for some compounds of the present invention were exemplified in 4-6 week old KK/H1J mice (Jackson Labs) in the context of an oral glucose tolerance test. Oral glucose tolerance tests (“OGTT”) have been in use in humans since, at least, the 1930s, Pincus et al., Am. J. Med. Sci, 188: 782 (1934), and are routinely used in the diagnosis of human diabetes, though not to evaluate the efficacy of therapeutic agents in patients. KK mice have been used to evaluate glitazones (Fujita et al. Diabetes 32:804-810 (1983); Fujiwara et al., Diabetes 37: 1549-48 (1988); Izumi et al. Biopharm Drug. Dispos. 18:247-257 (1997)), metformin (Reddi et al. Diabet. Metabl. 19:44-51 (1993)), glucosidase inhibitors (Hamada et al. Jap. Pharmacol. Ther. 17:17-28 (1988); Matsuo et al. Am. J. Clin. Nutr. 55:314S-317S (1992)), and the extra-pancreatic effects of sulfonylureas (Kameda et al Arzneim. Forsch./Drug Res. 32:39044 (1982); Muller et al. Horm. Metabl. Res. 28:469-487 (1996)).
KK mice are derived from an inbred line first established by Kondo et al. (Kondo et al. Bull. Exp. Anim. 6:107-112 (1957)).
The mice were fasted overnight (about 14-18 hours), but allowed free access to water. […] The blood samples were centrifuged, the plasma collected and analyzed for glucose content on a Roche-Hitachi 912 glucose analyzer. […]

T1 sequence (P27487 whole entry, species assumed): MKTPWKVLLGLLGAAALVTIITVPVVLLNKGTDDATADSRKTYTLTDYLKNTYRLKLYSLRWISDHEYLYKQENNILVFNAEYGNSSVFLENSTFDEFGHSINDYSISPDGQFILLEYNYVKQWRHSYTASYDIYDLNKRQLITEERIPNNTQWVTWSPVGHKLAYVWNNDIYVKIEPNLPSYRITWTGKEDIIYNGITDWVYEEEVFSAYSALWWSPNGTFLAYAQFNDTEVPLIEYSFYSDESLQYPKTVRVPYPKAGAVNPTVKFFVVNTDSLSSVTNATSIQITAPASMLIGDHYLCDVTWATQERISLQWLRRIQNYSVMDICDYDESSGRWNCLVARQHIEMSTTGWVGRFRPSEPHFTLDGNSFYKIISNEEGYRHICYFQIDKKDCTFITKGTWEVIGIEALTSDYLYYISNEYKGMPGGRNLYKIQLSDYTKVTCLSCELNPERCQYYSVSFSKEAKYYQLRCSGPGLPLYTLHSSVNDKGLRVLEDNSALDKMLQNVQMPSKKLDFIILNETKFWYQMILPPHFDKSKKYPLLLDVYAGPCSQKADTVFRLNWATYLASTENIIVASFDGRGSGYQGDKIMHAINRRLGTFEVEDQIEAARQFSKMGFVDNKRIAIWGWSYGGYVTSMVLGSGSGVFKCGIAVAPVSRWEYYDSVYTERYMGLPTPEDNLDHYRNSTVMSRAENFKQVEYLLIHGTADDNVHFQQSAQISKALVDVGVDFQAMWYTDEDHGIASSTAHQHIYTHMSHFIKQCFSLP

SMILES | Papp A→B at 2.5 h, 2 μM [1] [×10⁻⁶ cm/s] | IC50 (DPP-IV) | further results
N[C@H](C(=O)N1CCCC1)[C@H]1CC[C@H](NC(=O)c2cnccn2)CC1 [reference compound] | 1.1 | – | –
Nc1nccnc1C(=O)N[C@H]1CC[C@H]([C@H](N)C(=O)N2CCCC2)CC1 [Example 18, (S)-3-amino-pyrazine-2-carboxylic acid [trans-4-(1-Amino-2-oxo-2-pyrrolidin-1-yl-ethyl)-cyclohexyl]-amide] | 4.8 | ≤ 100 nM | –
Cc1cnc(C(=O)N[C@H]2CC[C@H]([C@H](N)C(=O)N3CCCC3)CC2)cn1 [reference compound] | 0.7 | – | –
N[C@H](C(=O)N1CCCC1)[C@H]1CC[C@H](NC(=O)c2nccnc2NCCc2ccccc2)CC1 [Example 27] | 6.2 | ≤ 100 nM | –
N[C@H](C(=O)N1CCCC1)[C@H]1CC[C@H](N2C(=O)c3ccncc3C2=O)CC1 [Example 23, 2-[trans-4-((1S)-1-amino-2-oxo-2-pyrrolidin-1-yl-ethyl)-cyclohexyl]-pyrrolo[3,4-c]pyridine-1,3-dione] | – | 18 nM and ≤ 100 nM | percent (%) inhibition of glucose excursion (KK/H1J mice; oral dose level of 5 mg/kg, plasma glucose at t=45 minutes): about 65%
N[C@H](C(=O)N1CCCC1)[C@H]1CC[C@H](NC(=O)[C@@H]2C[C@@H](O)CN2C(=O)NCc2ccccc2)CC1 [Example 26, (2S,4R)-4-hydroxy-pyrrolidine-1,2-dicarboxylic acid 2-{[trans-4-((1S)-1-Amino-2-oxo-2-pyrrolidin-1-yl-ethyl)-cyclohexyl]-amide}1-benzylamide] | – | ≤ 100 nM | glucose lowering / inhibition of glucose excursion (in words) (KK/H1J mice; oral dosing, dose not stated): did not demonstrate inhibition
Nc1nccnc1C(=O)N[C@H]1CC[C@H]([C@H](N)C(=O)N2CCSC2)CC1 (as salt: hydrochloride) [Example 35, (S)-3-amino-pyrazine-2-carboxylic acid [trans-4-(1-amino-2-oxo-2-thiazolidin-3-yl-ethyl)-cyclohexyl]-amide] | – | – | melting point: 133.4 to 134.7 °C
